From patent US20170051034A1 (Novo Nordisk A/S, priority 2010, published 2017) come the findings set out here.

What is called EC50 is the concentration that produces a half-maximal response. Higher therefore signals weaker potency.

Numbered stars: 1 amine (or outer) side, 2 acyl side, 3 side chain; on linkers, the order of the positions; unused ones are H or OH. Side chains are listed from the residue outwards. Peptide text beside a SMILES is read from it. * marks the point of attachment. C20 diacid = O=C(O)CCCCCCCCCCCCCCCCCCC(=O)*; C18 diacid = O=C(O)CCCCCCCCCCCCCCCCC(=O)*; C16 diacid = O=C(O)CCCCCCCCCCCCCCC(=O)*; γGlu = O=C(O)[C@H](CCC(=O)[*:2])N[*:1]; AEEA = NCCOCCOCC(=O)O

The target of this experiment is glucagon receptor (Homo sapiens, UniProt P47871). The experiment can be described thus: cell-based.
Chain of glucagon receptor (P47871 26-477): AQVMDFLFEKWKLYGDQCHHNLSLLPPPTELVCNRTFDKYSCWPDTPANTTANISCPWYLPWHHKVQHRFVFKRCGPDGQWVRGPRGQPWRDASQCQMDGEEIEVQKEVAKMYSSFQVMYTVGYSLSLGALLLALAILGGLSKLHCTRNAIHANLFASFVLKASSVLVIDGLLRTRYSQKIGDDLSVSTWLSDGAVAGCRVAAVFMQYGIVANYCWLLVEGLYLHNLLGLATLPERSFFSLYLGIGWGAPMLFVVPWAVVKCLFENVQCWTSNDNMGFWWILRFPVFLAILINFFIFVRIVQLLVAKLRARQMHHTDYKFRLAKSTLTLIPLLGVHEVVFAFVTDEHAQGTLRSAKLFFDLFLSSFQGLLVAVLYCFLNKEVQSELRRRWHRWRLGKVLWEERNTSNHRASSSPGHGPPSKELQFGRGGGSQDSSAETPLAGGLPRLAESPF
Description: The cells (14000 per well) were incubated (37° C., 5% CO2) overnight in 384-well plates. Next day the cells were loaded with a calcium responsive dye that only distributed into the cytoplasm. Probenecid, an inhibitor of the organic anion transporter, was added to prevent the dye from leaving the cell. A PDE inhibitor was added to prevent formatted cAMP from being degraded. […] End point data were collected after 6 minutes. An increase in intracellular cAMP was proportional to an increased in calcium concentrations in the cytoplasm. […] EC50-values were calculated in Prism5.
The compound `CC(C)C[C@H](NC(=O)[C@H](Cc1ccc(O)cc1)NC(=O)[C@H](CCCCN)NC(=O)[C@H](CO)NC(=O)[C@H](Cc1ccc(O)cc1)NC(=O)[C@H](CC(=O)O)NC(=O)[C@H](CO)NC(=O)[C@@H](NC(=O)[C@H](Cc1ccccc1)NC(=O)[C@@H](NC(=O)CNC(=O)[C@H](CCC(N)=O)NC(=O)[C@H](CO)NC(=O)[C@@H](N)Cc1c[nH]cn1)[C@@H](C)O)[C@@H](C)O)C(=O)N[C@@H](CC(=O)O)C(=O)N[C@@H](CO)C(=O)N[C@@H](CCCCN)C(=O)N[C@@H](CCCNC(=N)N)C(=O)N[C@@H](C)C(=O)N[C@@H](CCC(N)=O)C(=O)N[C@@H](CCC(=O)O)C(=O)N[C@@H](Cc1ccccc1)C(=O)N[C@H](C(=O)N[C@@H](CCC(N)=O)C(=O)N[C@@H](Cc1c[nH]c2ccccc12)C(=O)N[C@@H](CC(C)C)C(=O)N[C@@H](CC(C)C)C(=O)N[C@@H](CCCCNC(=O)COCCOCCNC(=O)COCCOCCNC(=O)CC[C@H](NC(=O)CCCCCCCCCCCCCCCCC(=O)O)C(=O)O)C(=O)N[C@H](C(N)=O)[C@@H](C)O)C(C)C` [Example 43, N^ε28 ([2-[2-[2-[[2-[2-[2-[[(4S)-5-hydroxy-4-[(18-hydroxy-18-oxooctadecanoyl)amino]-5-oxopentanoyl]amino]ethoxy]ethoxy]acetyl]amino]ethoxy]ethoxy]acetyl]) [Lys^17, Glu^21 Leu^27, Lys^28] Glucagon peptide amide] (H-HSQGTFTSDYSKYLDSKRAQEFVQWLLK([AEEA-AEEA-γGlu-C18 diacid])T-NH2; N-terminus assumed) yielded an EC50 of 0.003 nM.

For the compound `CC(C)C[C@H](NC(=O)[C@H](Cc1ccc(O)cc1)NC(=O)[C@H](CCCCN)NC(=O)[C@H](CO)NC(=O)[C@H](Cc1ccc(O)cc1)NC(=O)[C@H](CC(=O)O)NC(=O)[C@H](CO)NC(=O)[C@@H](NC(=O)[C@H](Cc1ccccc1)NC(=O)[C@@H](NC(=O)CNC(=O)[C@H](CCC(N)=O)NC(=O)[C@H](CO)NC(=O)[C@@H](N)Cc1c[nH]cn1)[C@@H](C)O)[C@@H](C)O)C(=O)N[C@@H](CC(=O)O)C(=O)N[C@@H](CO)C(=O)N[C@@H](CCCCN)C(=O)N[C@@H](CCCCN)C(=O)N[C@@H](C)C(=O)N[C@@H](CCC(N)=O)C(=O)N[C@@H](CCC(=O)O)C(=O)N[C@@H](Cc1ccccc1)C(=O)N[C@H](C(=O)N[C@@H](CCCCNC(=O)COCCOCCNC(=O)COCCOCCNC(=O)CC[C@H](NC(=O)CCCCCCCCCCCCCCCCCCC(=O)O)C(=O)O)C(=O)N[C@@H](Cc1c[nH]c2ccccc12)C(=O)N[C@@H](CC(C)C)C(=O)N[C@@H](CC(C)C)C(=O)N[C@@H](CC(N)=O)C(=O)N[C@H](C(=O)O)[C@@H](C)O)C(C)C` [Example 66, N^ε24-[2-[2-[2-[[2-[2-[2-[[(4S)-4-carboxy-4-(19-carboxynonadecanoylamino)butanoyl]amino]ethoxy]ethoxy]acetyl]amino]ethoxy]ethoxy]acetyl]-[Lys^17,Lys^18,Glu^21,Lys^24,Leu^27]-Glucagon] (H-HSQGTFTSDYSKYLDSKKAQEFVK([AEEA-AEEA-γGlu-C20 diacid])WLLNT-OH), the EC50 is 6.35 nM. Compared with the last compound, the EC50 is about 2100-fold higher.

As for `CC(C)C[C@H](NC(=O)[C@H](Cc1ccc(O)cc1)NC(=O)[C@H](CCCCN)NC(=O)[C@H](CO)NC(=O)[C@H](Cc1ccc(O)cc1)NC(=O)[C@H](CC(=O)O)NC(=O)[C@H](CO)NC(=O)[C@@H](NC(=O)[C@H](Cc1ccccc1)NC(=O)[C@@H](NC(=O)CNC(=O)[C@H](CCC(N)=O)NC(=O)[C@H](CO)NC(=O)[C@@H](N)Cc1c[nH]cn1)[C@@H](C)O)[C@@H](C)O)C(=O)N[C@@H](CC(=O)O)C(=O)N[C@@H](CO)C(=O)N[C@@H](CCCCN)C(=O)N[C@@H](CCCCN)C(=O)N[C@@H](C)C(=O)N[C@@H](CCC(N)=O)C(=O)N[C@@H](CCC(=O)O)C(=O)N[C@@H](Cc1ccccc1)C(=O)N[C@H](C(=O)N[C@@H](CCCCNC(=O)COCCOCCNC(=O)COCCOCCNC(=O)CC[C@H](NC(=O)CCCCCCCCCCCCCCCCC(=O)O)C(=O)O)C(=O)N[C@@H](Cc1c[nH]c2ccccc12)C(=O)N[C@@H](CC(C)C)C(=O)N[C@@H](CC(C)C)C(=O)N[C@@H](CC(=O)O)C(=O)N[C@H](C(=O)O)[C@@H](C)O)C(C)C` [Example 67, N^ε24-[2-[2-[2-[[2-[2-[2-[[(4S)-4-carboxy-4-(17-carboxyheptadecanoylamino)butanoyl]amino]ethoxy]ethoxy]acetyl]amino]ethoxy]ethoxy]acetyl]-[Lys^17,Lys^18,Glu^21,Lys^24,Leu^27,Asp^28]-Glucagon] (H-HSQGTFTSDYSKYLDSKKAQEFVK([AEEA-AEEA-γGlu-C18 diacid])WLLDT-OH), the EC50 turned out to be 0.051 nM.

The compound `CC(C)C[C@H](NC(=O)[C@H](CC(C)C)NC(=O)[C@H](Cc1c[nH]c2ccccc12)NC(=O)[C@H](CCC(N)=O)NC(=O)[C@@H](NC(=O)[C@H](Cc1ccccc1)NC(=O)[C@H](CCC(=O)O)NC(=O)[C@H](CCC(N)=O)NC(=O)[C@H](C)NC(=O)[C@H](CCCCN)NC(=O)[C@H](CCCCN)NC(=O)[C@H](CO)NC(=O)[C@H](CC(=O)O)NC(=O)[C@H](CC(C)C)NC(=O)[C@H](Cc1ccc(O)cc1)NC(=O)[C@H](CCCCN)NC(=O)[C@H](CO)NC(=O)[C@H](Cc1ccc(O)cc1)NC(=O)[C@H](CC(=O)O)NC(=O)[C@H](CO)NC(=O)[C@@H](NC(=O)[C@H](Cc1ccccc1)NC(=O)[C@@H](NC(=O)CNC(=O)[C@H](CCC(N)=O)NC(=O)[C@H](CO)NC(=O)[C@@H](N)Cc1c[nH]cn1)[C@@H](C)O)[C@@H](C)O)C(C)C)C(=O)N[C@@H](CC(N)=O)C(=O)N[C@@H](CCCCNC(=O)COCCOCCNC(=O)COCCOCCNC(=O)CC[C@H](NC(=O)CCCCCCCCCCCCCCCCC(=O)O)C(=O)O)C(=O)O` [Example 68, N^ε29-[2-[2-[2-[[2-[2-[2-[[(4S)-4-carboxy-4-(17-carboxyheptadecanoylamino)butanoyl]amino]ethoxy]ethoxy]acetyl]amino]ethoxy]ethoxy]acetyl]-[Lys^17,Lys^18,Glu^21,Leu^27,Lys^29]-Glucagon] (H-HSQGTFTSDYSKYLDSKKAQEFVQWLLNK([AEEA-AEEA-γGlu-C18 diacid])-OH) returned an EC50 of 0.053 nM.

In the case of `CC(C)C[C@H](NC(=O)[C@H](Cc1ccc(O)cc1)NC(=O)[C@H](CCCCN)NC(=O)[C@H](CO)NC(=O)[C@H](Cc1ccc(O)cc1)NC(=O)[C@H](CC(=O)O)NC(=O)[C@H](CO)NC(=O)[C@@H](NC(=O)[C@H](Cc1ccccc1)NC(=O)[C@@H](NC(=O)CNC(=O)[C@H](CCC(N)=O)NC(=O)[C@H](CO)NC(=O)[C@@H](N)Cc1c[nH]cn1)[C@@H](C)O)[C@@H](C)O)C(=O)N[C@@H](CC(=O)O)C(=O)N[C@@H](CO)C(=O)N[C@@H](CCCCN)C(=O)N[C@@H](CCCCN)C(=O)N[C@@H](C)C(=O)N[C@@H](CCC(N)=O)C(=O)N[C@@H](CCC(=O)O)C(=O)N[C@@H](Cc1ccccc1)C(=O)N[C@H](C(=O)N[C@@H](CCCCNC(=O)COCCOCCNC(=O)COCCOCCNC(=O)CC[C@H](NC(=O)CCCCCCCCCCCCCCC(=O)O)C(=O)O)C(=O)N[C@@H](Cc1c[nH]c2ccccc12)C(=O)N[C@@H](CC(C)C)C(=O)N[C@@H](CC(C)C)C(=O)N[C@@H](CO)C(=O)N[C@H](C(=O)O)[C@@H](C)O)C(C)C` [Example 69, N^ε24-[2-[2-[2-[[2-[2-[2-[[(4S)-4-carboxy-4-(15-carboxypentadecanoylamino)butanoyl]amino]ethoxy]ethoxy]acetyl]amino]ethoxy]ethoxy]acetyl]-[Lys^17,Lys^18,Glu^21,Lys^24,Leu^27,Ser^28]-Glucagon] (H-HSQGTFTSDYSKYLDSKKAQEFVK([AEEA-AEEA-γGlu-C16 diacid])WLLST-OH), it took 0.006 nM to reach a half-maximal effect (EC50).
